In patent US20210060016A1, “ANTICANCER AGENT” (JAPANESE FOUNDATION FOR CANCER RESEARCH, priority 2017, published 2021):

Columns and labels:
tankyrase 1 = target: T1, tankyrase 1 (Homo sapiens, UniProt O95271); assay: Tankyrase inhibitory activity test (ELISA, auto-poly(ADP-ribosyl)ation), TNKS1; assay type: biochemical; details: Flag-tagged tankyrase 1 (SAM+PARP), read-out: TNKS1 (inhibitory activity against tankyrase 1), IC50 rating
T1 construct: tankyrase 1 (1,024-1, 327aa, SAM+PARP); made in house; host or cells: cell-free protein expression system
Experimental: (§1) The enzymatic activity of tankyrase 1 and the enzymatic activity of tankyrase 2 were measured by the ELISA method based on assessment of auto-poly(ADP-ribosyl)ation to evaluate the tankyrase inhibitory activity of the compound prepared in each of Compound Examples (test compound) (inhibitory activity against tankyrase 1 (TNKS1) and inhibitory activity against tankyrase 2 (TNKS2)). First, Flag-tagged tankyrase 1 (1,024-1, 327aa, SAM+PARP) and tankyrase 2 (613-1, 116aa, ANK5+SAM+PARP) were synthesized with a cell-free protein expression system, and diluted with a Tris buffer solution (50 mM Tris-HCl (pH 8.0), 150 mM NaCl, 10% glycerol). 50 μL of the diluted tankyrase 1 or tankyrase 2 was added to a plate with an anti-FLAG M2 monoclonal antibody immobilized thereon (Anti-FLAG High-Sensitivity M2-Coated Plate) (Sigma-Aldrich), and the mixture was left to stand overnight at 4° C. Thereafter, the plate was washed four times with a PBS (PBST) buffer containing 0.1% TritonX-100.
(§2) Subsequently, the test compound diluted with an assay buffer (50 mM Tris-HCl (pH 8.0), 4 mM MgCl2, 0.2 mM DTT) (DMSO was used as a control) was added to each well of the plate, and the mixture was left to stand at room temperature for 10 minutes. Thereafter, a biotin-labeled NAD solution (225 μM NAD, 25 μM 6-Biotin-17-NAD (Travigen, Inc.)) was added and mixed as a donor substrate, and the mixture was reacted at 30° C. for 45 minutes. To blank wells was added distilled water instead of the biotin-labeled NAD solution. After the reaction, the plate was washed with a PBST buffer four times. Thereafter, HRP (horseradish peroxidase)-labeled streptavidin (Travigen, Inc.) was diluted with a PBS buffer by 1,000 times, and added to each well, and the mixture was reacted at room temperature for 20 minutes. The plate was washed with a PBST buffer four times, a chemiluminescent substrate solution TACS-Sapphire (Travigen, Inc.) was then added to each well, the mixture was reacted at room temperature for 20 minutes, and thechemiluminescence intensity was measured using a chemiluminescence measuring apparatus.
(§3) The residual enzymatic activity in the presence of the test compound was determined from the following expression. On the basis of the residual enzymatic activity at each of multiple concentrations of the test compound, the enzyme inhibitory activity was calculated in terms of a 50%-inhibition concentration (IC50 value) using data analysis software Origin (LightStone Corp.). Residual activity (%)={(chemiluminescence intensity with test compound added)−(chemiluminescence intensity of blank)}/{(chemiluminescence intensity of control)−(chemiluminescence intensity of blank))

tankyrase 2 = target: T2, tankyrase 2 (Homo sapiens, UniProt Q9H2K2); assay: Tankyrase inhibitory activity test (ELISA, auto-poly(ADP-ribosyl)ation), TNKS2; assay type: biochemical; details: Flag-tagged tankyrase 2 (ANK5+SAM+PARP), read-out: TNKS2 (inhibitory activity against tankyrase 2), IC50 rating
T2 construct: tankyrase 2 (613-1, 116aa, ANK5+SAM+PARP); made in house; host or cells: cell-free protein expression system
Experimental: as §1, §2, §3

[1] = system: human colorectal cancer cell line COLO-320DM; assay: Cell proliferation inhibitory activity test (Celltiter-Glo); assay type: cell-based; details: 96 hours, read-out: COLO-320DM (cell proliferation inhibitory activity), G150 rating
Experimental: The cell proliferation inhibitory activity of the compound, which had been prepared in each of Compound Examples, against the human colorectal cancer cell line COLO-320DM was evaluated by Celltiter-Glo Luminescent Cell Viability Assay (Promega Corporation; G7573). COLO-320DM cells were cultured in RPMI-1640 medium containing 2 mM glutamine (Wako Pure Chemical Industries, Ltd; 189-02025) supplemented with 10% fetal bovine serum. The cultured cells were washed with PBS, and then dissociated with trypsin/EDTA, and a cell solution with 3×10^4 cells/mL was prepared.
Subsequently, the cell solution was seeded in a 96-well microplate (Thermo/Nunc Company; 136101) in an amount of 70 μL per well, and cultured overnight under the condition of 37° C. and 5% COz. The next day, a test compound solution obtained by diluting the test compound (DMSO solution) with a cell culture medium (final concentration of DMSO was 1%) was added in an amount of 10 μL per well, and the mixture was reacted under the condition of 37° C. and 5% CO2 for 96 hours (a 1% DMSO solution was used as a control). Thereafter, a Celltiter-Glo Luminescent Cell Viability Assay reagent was added (Promega Corporation; G7573) in an amount of 80 μL per well, the mixture was stirred with a shaker for 2 minutes while light was blocked with an aluminum foil, and the mixture was incubated at room temperature for 10 minutes.
Thereafter, a luminescence signal was measured with a luminometer (Biotech Company; Synergy). The ratio of cell proliferation in each compound addition group to cell proliferation in a control group containing no test compound solution, where cell proliferation in the control group is 100%, was determined, and the value of a compound concentration necessary for suppressing the amount of residual cells to 50% of that in the control (G150) was calculated as the cell proliferation inhibitory activity. For the COLO-320DM (cell proliferation inhibitory activity against COLO-320DM) of each test compound as measured through the above-mentioned method, a test compound having a G150 value of less than 1 μM was rated “A”, a test compound having a G150 value of 1 μM or more and less than 10 μM was rated “B”, a test compound having a G150 value of 10 μM or more was rated “C”, and an unevaluated test compound was designated as “NT”.

T1 sequence (O95271 1024-1327): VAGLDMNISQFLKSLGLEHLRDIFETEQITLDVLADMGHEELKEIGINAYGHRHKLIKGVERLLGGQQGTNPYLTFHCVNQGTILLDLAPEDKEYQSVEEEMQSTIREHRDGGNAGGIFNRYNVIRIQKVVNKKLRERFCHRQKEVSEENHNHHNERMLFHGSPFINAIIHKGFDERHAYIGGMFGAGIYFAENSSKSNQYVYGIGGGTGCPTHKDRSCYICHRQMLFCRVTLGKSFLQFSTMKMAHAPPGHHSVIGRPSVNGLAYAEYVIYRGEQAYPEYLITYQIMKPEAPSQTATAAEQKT
T2 sequence (Q9H2K2 613-1166): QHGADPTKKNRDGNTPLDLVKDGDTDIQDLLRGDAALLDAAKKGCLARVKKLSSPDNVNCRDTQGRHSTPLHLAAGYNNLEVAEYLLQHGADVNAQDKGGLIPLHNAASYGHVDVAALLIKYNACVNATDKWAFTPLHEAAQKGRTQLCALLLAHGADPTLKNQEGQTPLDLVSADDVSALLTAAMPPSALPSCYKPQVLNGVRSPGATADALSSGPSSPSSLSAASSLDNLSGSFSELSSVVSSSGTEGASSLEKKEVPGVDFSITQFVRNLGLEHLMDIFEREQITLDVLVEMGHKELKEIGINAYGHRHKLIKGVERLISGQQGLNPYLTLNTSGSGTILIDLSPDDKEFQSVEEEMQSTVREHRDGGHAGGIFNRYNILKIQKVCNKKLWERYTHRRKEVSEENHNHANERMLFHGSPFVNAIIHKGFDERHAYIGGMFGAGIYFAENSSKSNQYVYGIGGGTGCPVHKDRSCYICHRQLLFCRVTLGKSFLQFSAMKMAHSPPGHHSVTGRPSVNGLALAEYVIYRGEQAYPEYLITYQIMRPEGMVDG

| Compound | IC50 (tankyrase 1) [nM] | IC50 (tankyrase 2) [nM] | IC50 [1] [nM] |
| --- | --- | --- | --- |
| CCOc1ccc(-c2n[nH]nc2[C@H]2NC(=O)c3cccc(C)c3N2)cc1 [Compound Example 101, (2R)-2-[5-(4-Ethoxyphenyl)-2H-1,2,3-triazol-4-yl]-8-methyl-2,3-dihydro-1H-quinazolin-4-one] | < 20 | < 20 | < 1000 |
| COc1ccc(-c2c[nH]nc2C2NC(=O)c3cccc(C)c3N2)cc1 (stereo not drawn) [Compound Example 113, 2-[4-(4-Methoxyphenyl)-1H-pyrazol-3-yl]-8-methyl-2,3-dihydro-1H-quinazolin-4-one] | < 20 | 20 to 200 | ≥ 10000 |
